Measurements taken from US9878986B2, “Compounds for selective histone deacetylase inhibitors, and pharmaceutical composition comprising the same” (CHONG KUN DANG PHARMACEUTICAL CORP., priority 2013, dated 2018).

What was measured:
HDAC 3 = target: T1, HDAC 3 (Homo sapiens, UniProt O15379); assay: HDAC panel by Reaction Biology Corp., HDAC 3; format: biochemical; conditions: read-out: HDAC inhibitory activities, HDAC 3
T1 construct: Reaction Biology Corp
From the text: (§1) The inhibitory activities of Compounds 255 and 374 on all HDACs were confirmed (by Reaction Biology Corp.).

HDAC 10 = target: T2, HDAC 10 (Homo sapiens, UniProt Q969S8); assay: HDAC panel by Reaction Biology Corp., HDAC 10; format: biochemical; conditions: read-out: HDAC inhibitory activities, HDAC 10
T2 construct: Reaction Biology Corp
T2 sequence (Q969S8 1-669): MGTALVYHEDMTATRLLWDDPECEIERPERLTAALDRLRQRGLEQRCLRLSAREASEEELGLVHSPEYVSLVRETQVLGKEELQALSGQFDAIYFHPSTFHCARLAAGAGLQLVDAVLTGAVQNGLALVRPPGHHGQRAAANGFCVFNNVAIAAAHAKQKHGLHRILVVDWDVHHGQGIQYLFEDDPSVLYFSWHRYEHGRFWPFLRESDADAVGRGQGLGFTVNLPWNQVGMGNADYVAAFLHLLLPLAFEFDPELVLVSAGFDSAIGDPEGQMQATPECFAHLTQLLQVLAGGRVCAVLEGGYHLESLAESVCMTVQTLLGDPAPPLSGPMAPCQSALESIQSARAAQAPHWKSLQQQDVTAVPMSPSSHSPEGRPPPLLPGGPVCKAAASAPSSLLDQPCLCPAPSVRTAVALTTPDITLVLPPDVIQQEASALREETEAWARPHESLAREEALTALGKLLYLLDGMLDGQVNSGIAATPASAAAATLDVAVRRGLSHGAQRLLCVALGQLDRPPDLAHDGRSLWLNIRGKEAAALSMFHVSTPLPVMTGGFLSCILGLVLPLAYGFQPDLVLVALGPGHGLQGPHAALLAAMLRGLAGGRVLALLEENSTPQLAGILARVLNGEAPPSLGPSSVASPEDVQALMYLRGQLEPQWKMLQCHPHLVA
From the text: as §1

HDAC 9 = target: T3, HDAC 9 (Homo sapiens, UniProt Q9UKV0); assay: HDAC panel by Reaction Biology Corp., HDAC 9; format: biochemical; conditions: read-out: HDAC inhibitory activities, HDAC 9
T3 construct: Reaction Biology Corp
T3 sequence (Q9UKV0 whole entry): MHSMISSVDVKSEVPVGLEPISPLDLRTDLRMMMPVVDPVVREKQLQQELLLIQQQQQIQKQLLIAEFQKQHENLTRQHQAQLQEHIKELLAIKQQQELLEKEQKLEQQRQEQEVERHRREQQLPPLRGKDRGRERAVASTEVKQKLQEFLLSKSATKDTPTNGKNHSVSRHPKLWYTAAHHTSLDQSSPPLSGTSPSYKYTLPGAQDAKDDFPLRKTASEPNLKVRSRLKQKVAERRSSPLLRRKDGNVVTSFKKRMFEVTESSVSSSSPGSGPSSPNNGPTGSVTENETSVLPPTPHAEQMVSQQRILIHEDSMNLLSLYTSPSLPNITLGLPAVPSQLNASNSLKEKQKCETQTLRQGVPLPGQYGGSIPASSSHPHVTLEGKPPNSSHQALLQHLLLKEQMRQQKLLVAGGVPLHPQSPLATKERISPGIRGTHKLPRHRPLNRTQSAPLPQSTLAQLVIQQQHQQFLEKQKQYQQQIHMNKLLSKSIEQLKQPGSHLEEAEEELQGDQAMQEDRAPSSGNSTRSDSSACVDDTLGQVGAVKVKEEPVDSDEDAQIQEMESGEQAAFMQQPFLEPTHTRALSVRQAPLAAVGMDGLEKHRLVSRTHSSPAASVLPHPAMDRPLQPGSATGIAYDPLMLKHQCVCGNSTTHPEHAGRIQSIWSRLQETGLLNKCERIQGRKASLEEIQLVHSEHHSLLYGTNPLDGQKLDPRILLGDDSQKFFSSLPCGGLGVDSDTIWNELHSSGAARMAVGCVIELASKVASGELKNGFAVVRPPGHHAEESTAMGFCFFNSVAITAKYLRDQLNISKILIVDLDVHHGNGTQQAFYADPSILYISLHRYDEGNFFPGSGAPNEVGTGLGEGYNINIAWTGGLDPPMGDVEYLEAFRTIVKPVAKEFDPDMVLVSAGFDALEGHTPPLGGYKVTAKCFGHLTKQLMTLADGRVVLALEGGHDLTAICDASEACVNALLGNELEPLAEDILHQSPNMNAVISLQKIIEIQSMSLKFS
From the text: as §1

HDAC 2 = target: T4, HDAC 2 (Homo sapiens, UniProt Q92769); assay: HDAC panel by Reaction Biology Corp., HDAC 2; format: biochemical; conditions: read-out: HDAC inhibitory activities, HDAC 2
T4 construct: Reaction Biology Corp
T4 sequence (Q92769 whole entry): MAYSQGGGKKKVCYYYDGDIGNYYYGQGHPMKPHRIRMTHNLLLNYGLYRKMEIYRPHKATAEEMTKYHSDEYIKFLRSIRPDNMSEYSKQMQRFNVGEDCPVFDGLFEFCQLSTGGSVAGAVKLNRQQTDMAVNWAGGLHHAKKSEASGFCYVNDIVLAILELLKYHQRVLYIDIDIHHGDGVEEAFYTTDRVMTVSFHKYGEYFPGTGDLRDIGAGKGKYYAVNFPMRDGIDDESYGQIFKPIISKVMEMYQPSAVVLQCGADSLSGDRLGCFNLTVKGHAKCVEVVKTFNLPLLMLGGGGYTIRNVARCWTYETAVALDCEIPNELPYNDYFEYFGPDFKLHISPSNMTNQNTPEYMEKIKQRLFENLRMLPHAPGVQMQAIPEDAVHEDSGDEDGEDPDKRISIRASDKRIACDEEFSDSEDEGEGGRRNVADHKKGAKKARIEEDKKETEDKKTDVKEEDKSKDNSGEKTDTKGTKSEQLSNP
From the text: as §1

HDAC 6 = target: T5, HDAC 6 (Homo sapiens, UniProt Q9UBN7); assay: HDAC panel by Reaction Biology Corp., HDAC 6; format: biochemical; parameters: Reaction Biology Corp; conditions: for IC50: Table 15, Reaction Biology Corp., read-out: HDAC6 inhibitory activity; for Selectivity (HDAC6/1): ratio of the HDAC 1 and HDAC 6 values of Table 15; for selectivity for HDAC6 over HDAC1: text on Table 15
T5 sequence (Q9UBN7 1-1215): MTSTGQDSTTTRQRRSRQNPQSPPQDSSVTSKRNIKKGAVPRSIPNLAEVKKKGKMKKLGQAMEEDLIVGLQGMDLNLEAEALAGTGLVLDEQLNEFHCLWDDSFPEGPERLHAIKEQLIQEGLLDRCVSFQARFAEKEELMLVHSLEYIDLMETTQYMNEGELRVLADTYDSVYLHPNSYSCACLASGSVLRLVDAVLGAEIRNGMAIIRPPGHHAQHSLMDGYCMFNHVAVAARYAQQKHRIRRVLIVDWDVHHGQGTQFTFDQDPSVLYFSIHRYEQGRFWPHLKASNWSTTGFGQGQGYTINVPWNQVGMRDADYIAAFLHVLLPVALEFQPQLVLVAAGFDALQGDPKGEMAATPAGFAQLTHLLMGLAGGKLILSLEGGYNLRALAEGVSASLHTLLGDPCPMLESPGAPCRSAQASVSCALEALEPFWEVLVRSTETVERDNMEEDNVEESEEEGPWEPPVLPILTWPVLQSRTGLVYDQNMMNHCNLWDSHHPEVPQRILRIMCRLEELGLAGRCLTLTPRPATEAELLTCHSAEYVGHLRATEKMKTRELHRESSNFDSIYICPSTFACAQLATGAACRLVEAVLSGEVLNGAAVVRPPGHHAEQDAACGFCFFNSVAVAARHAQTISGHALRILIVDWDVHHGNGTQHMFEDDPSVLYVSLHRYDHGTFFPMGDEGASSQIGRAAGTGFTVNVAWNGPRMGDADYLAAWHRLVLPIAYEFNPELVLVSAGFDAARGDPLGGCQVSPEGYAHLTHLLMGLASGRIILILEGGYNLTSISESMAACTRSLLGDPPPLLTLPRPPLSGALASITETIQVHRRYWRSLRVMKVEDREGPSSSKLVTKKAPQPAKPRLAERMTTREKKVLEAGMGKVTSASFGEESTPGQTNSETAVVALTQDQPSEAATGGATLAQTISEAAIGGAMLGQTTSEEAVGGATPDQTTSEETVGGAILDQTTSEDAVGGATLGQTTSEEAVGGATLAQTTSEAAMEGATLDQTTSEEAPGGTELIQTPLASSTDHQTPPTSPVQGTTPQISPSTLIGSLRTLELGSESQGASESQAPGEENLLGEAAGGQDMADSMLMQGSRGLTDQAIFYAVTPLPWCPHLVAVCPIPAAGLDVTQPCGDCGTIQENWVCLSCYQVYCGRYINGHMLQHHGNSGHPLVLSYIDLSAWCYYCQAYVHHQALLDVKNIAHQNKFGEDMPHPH
From the text: as §1

HDAC1 = HDAC1 (Homo sapiens, UniProt Q13547); assay: HDAC panel by Reaction Biology Corp., HDAC 1; format: biochemical; parameters: Reaction Biology Corp; conditions: Table 15, Reaction Biology Corp.; read-out: HDAC1 inhibitory activity
Chain of HDAC1 (Q13547 whole entry): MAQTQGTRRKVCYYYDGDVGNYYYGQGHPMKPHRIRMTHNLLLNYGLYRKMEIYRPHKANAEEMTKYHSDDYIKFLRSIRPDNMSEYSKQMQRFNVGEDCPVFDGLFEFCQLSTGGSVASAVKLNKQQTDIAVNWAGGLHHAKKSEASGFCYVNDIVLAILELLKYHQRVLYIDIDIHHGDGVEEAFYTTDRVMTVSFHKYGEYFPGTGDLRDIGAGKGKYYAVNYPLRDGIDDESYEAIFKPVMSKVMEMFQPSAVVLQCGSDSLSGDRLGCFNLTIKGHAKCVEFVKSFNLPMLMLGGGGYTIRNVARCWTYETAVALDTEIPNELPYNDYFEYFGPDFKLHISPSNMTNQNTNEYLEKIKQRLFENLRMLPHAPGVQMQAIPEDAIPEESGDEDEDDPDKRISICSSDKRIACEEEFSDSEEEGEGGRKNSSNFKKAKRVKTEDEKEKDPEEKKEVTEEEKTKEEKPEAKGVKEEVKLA
From the text: as §1

[1] = system: adjuvant-induced arthritis models; assay: Adjuvant-induced arthritis models; format: in vivo, Lewis rat; conditions: for clinical score: intraperitoneally, score 0 to 16; for arthritis symptoms improved by: 3, 10 and 30 mg/kg twice a day, versus vehicle group; for efficacy compared with the control compound Tofacitinib: clinical score
Procedure: Complete Freund's Adjuvant (Chondrex) containing 10 mg/mL Heat killed mycobacteria toxin was sufficiently mixed, and then 100 μL was taken and intradermally injected into the upper part of the tail of Lewis rat to induce arthritis. After 10 days, the length of the ankle circumference of rats was measured, and then the rats were grouped and used in the experiment. Each compound was intraperitoneally injected twice a day. The clinical score, the length of the ankle circumference, and the weight were measured twice a week after the administration of the compounds. The clinical scores were assigned from 0 to 4 based on the thesis of Woods, etc. (J. Immunology, 1214-1222, 2001), and the total clinical score was determined by evaluating the feet of each rat and summing up the scores (normal: 0, most severe edema: 16). The length of the ankle circumference was calculated based on the formula of 2×3.14(√(a^2+b^2/2)) after measuring top-bottom sides (a) of the foot and lateral sides (b) of the foot. The final value was determined by averaging the calculated values of each foot.

T1 sequence (O15379 whole entry): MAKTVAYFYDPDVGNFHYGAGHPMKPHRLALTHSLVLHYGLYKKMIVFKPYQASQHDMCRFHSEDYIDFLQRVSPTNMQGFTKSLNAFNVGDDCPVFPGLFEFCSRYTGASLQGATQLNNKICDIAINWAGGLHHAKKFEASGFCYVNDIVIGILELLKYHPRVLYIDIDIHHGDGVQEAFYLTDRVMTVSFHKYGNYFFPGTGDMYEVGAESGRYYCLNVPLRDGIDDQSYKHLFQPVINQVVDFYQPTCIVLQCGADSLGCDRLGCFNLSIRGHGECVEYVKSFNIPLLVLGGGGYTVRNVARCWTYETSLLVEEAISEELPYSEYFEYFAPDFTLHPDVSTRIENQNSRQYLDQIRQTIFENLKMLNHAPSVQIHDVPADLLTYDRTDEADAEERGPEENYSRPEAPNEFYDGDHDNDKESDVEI
T1 sequence (Q9Y618 395-489 partner limits assumed): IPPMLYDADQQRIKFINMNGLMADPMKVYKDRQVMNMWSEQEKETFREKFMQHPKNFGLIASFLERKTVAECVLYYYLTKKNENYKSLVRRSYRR

| Structure (SMILES) | IC50 (HDAC 3) [nM] | IC50 (HDAC 10) [nM] | IC50 (HDAC 9) [nM] | IC50 (HDAC 2) [nM] | IC50 (HDAC 6) [nM] | Selectivity (HDAC6/1) (HDAC 6) | selectivity for HDAC6 over HDAC1 (HDAC 6) [times] | IC50 (HDAC1) [nM] | clinical score ([1]; 3 mg/kg twice a day) | clinical score ([1]; 10 mg/kg twice a day) | clinical score ([1]; 30 mg/kg twice a day) | arthritis symptoms improved by [1] [%] | efficacy compared with the control compound Tofacitinib [1] |
| --- | --- | --- | --- | --- | --- | --- | --- | --- | --- | --- | --- | --- | --- |
| O=C(NO)c1ccc(CN(C(=O)N2CCOCC2)c2cccc(Br)c2)cc1 [Compound 255, N-(3-bromophenyl)-N-(4-(hydroxycarbamoyl)benzyl)morpholine-4-carboxamide] | 1630 | 1470 | 3520 | 690 | 1 | 160 | 160 | 160 | 3.0 | 2.6 | 0.7 | 40 to 90 | equivalent efficacy |
| O=C(NO)c1ccc(CN(C(=O)N2CCOCC2)c2cccc(C(F)(F)F)c2)cc1 [Compound 374, N-(4-(hydroxycarbamoyl)benzyl)-N-(3-(trifluoromethyl)phenyl)morpholine-4-carboxamide] | 10300 | 16200 | 10300 | 4880 | 5 | 424 | 424 | 2120 | 2.5 | 0.8 | 1.3 | 70 to 90 | equivalent efficacy |
